Measurements: patent US20090221488A1, “Certain Compositions and Methods of Treatment” (priority 2005, published 2009)
Like-named read-outs stand apart in the source and are kept apart here.

Legend:
[1] = biological target: P-glycoprotein (Pgp, MDR1) (Homo sapiens, UniProt P08183); experiment: in vitro
[2] = biological target: Mouse KSP (Mus musculus, UniProt Q6P9P6); experiment: Kinesin affinity, mouse KSP; assay type: binding
[3] = biological target: Other kinesins; experiment: Kinesin affinity, other kinesins; assay type: binding
[4] = test system: HT29; experiment: Cellular activity, HT29; assay type: cell-based
[5] = test system: SKOV3; experiment: Cellular activity, SKOV3; assay type: cell-based
[6] = test system: Colo205; experiment: Cellular activity, Colo205; assay type: cell-based
[7] = test system: MV522; experiment: Cellular activity, MV522; assay type: cell-based
[8] = test system: MX1; experiment: Cellular activity, MX1; assay type: cell-based
[9] = test system: P388 (murine); experiment: Cellular activity, P388; assay type: cell-based
[10] = test system: HT29 tumor xenografts; experiment: HT29 tumor xenograft efficacy, Compound A and bortezomib alone and combined; assay type: in vivo, female athymic nu/nu mice; conditions: for TGD, second arm, single agents: 1.5 mg/kg bortezomib and 10 mg/kg Compound A as printed; for mean tumor growth delay (TGD): 1.5 mg/kg bortezomib, 10 mg/kg Compound A, q4d×3; for mean time to endpoint (TTE), tumor volume=1000 mm^3: single agents (at MTD for bortezomib and Compound A)
Method: (§1) Finally, tolerability and efficacy studies were conducted in which HT29 tumors maintained by serial passage were implanted subcutaneously in 9-10 weeks old female athymic no/nu mice (Harlan) Twenty-one (21) days post-implantation, when tumors reached 63-196 mm^3, mice were randomized into cohorts of […] with mean tumor volumes ˜100 mm^3. […] Drugs were delivered on the indicated schedules at 10 ml/kg by i.p. injection, except paclitaxel, which was administered by intravenous injection. Tumors were measured twice weekly and mice euthanized when tumor reached 1000 mm^3 or at day 59. Mice were weighed twice weekly. Acceptable toxicity was defined as body weight loss of <20% and ≦1 treatment-related death among ten treated animals. Toxicity exceeding these levels was considered above MTD.
(§2) Anti-tumor activity of sequenced (24 hour offset, q4d×3) and simultaneous administration was explored in HT29 tumor xenografts.
as §2

[11] = Tolerability (MTD) of Compound A and bortezomib in nude mice; assay type: in vivo
Method: as §1

[12] = test system: murine P388 lymphocytic leukaemia; experiment: P388 lymphocytic leukaemia model, dosing schedule study; assay type: in vivo
From the text: More frequent administration of the compound was poorly tolerated and dictated a lower total dose. […] At doses equivalent to either ¼ or ½ the MTD, % ILS and NCK were reduced.

[13] = test system: Colo205 colon carcinoma xenograft; experiment: Colo205 xenograft tumor model; assay type: in vivo, nude mice
[14] = test system: MV 522 human lung carcinoma xenograft; experiment: MV 522 xenograft tumor model; assay type: in vivo, nude mice; conditions: i.p. q4d×3, up to the MTD
[15] = Preclinical toxicology in dogs, 1-hr IV infusion; assay type: in vivo, dog
Method: Doses up to 40 mg/m^2 were tested in a single dose-range finding study and doses of 5, 10 and 20 mg/m^2 were tested in a 3-week (once weekly) toxicology study. Drug-related findings occurred at all dose levels, but severity and incidence were generally dose-proportional. […] In dogs given ≧10 mg/m^2, clinical observations of gastrointestinal (GI) disturbances included vomiting/retching, fecal abnormalities, hypoactivity, anorexia and body weight losses. […] Based on these findings, the highest non-severely toxic dose in the dog is 10 mg/m^2.

[16] = Preclinical toxicology in rats, 1, 6 and 24-hr IV infusion; assay type: in vivo, rat; conditions: for dose at which mortality occurred: 24-hr infusion
From the text: Transient drug-related findings occurred at all doses, but severity and incidence were generally dose proportional and dependent on the duration of infusion. Most consistent findings included hematopoeitic toxicity (depletion in bone marrow and thymus and associated hematologic changes) and enteropathy (necrosis/regeneration of intestinal crypt epithelium and villus atrophy and body weight loss or decrease in body weight gain). Microscopic changes (necrosis, apoptosis and/or cellular degeneration) were also evident in liver, mammary glands, testes and epididymus, and at ≧36 mg/m^2, increased mitotic figures in many tissues. All drug-related toxicities completely reversed 2 weeks after dosing, with the exception of degenerative testicular changes at ≧18 mg/m^2. In the 1 to 6-hr infusion studies, there was no mortality, however based on the severity of hematopoietic and gastrointestinal toxicities, the MTD was 72 mg/m^2. When the infusion was increased to 24-hr, mortality occurred at 18 mg/m^2 after a single dose and at 12 mg/m^2 after repeated weekly dosing.

[17] = test system: rat, dog, rabbit and human blood; experiment: In vitro hemolysis on mixing with blood
From the text: Hemolysis was not observed in any of the in vivo studies, nor has it been observed in the ongoing Phase I trial.

[18] = In vitro Ames test; assay type: cell-based
From the text: (§3) Positive findings are consistent with the expected pharmacology of Compound A.

[19] = test system: mouse lymphoma; experiment: Mouse lymphoma mutagenicity assay; assay type: cell-based; conditions: in vitro mouse lymphoma mutagenicity assay
From the text: as §3

[20] = In vivo rat micronucleus study; conditions: all doses tested (≧3 mg/m^2 administered daily×2)
From the text: as §3

[21] = Dose-escalation Phase I study in patients with solid tumors; assay type: in vivo
From the text: In this study, the ANC generally achieved a nadir at Day 7-8 and had completely recovered by Day 15.

[22] = test system: broad spectrum of tumor cell lines; experiment: Cytotoxic activity in tumor cell lines; assay type: cell-based
[23] = test system: HT 29 chemo-refractory colon carcinoma xenograft
[24] = test system: MX-1 mammary carcinoma xenograft; conditions: i.p. q4d×3
[25] = biological target: human P-glycoprotein (Pgp) (Homo sapiens, UniProt P08183); conditions: MDCKII-MDR1 cells
[26] = test system: MCF-7 human tumor xenograft
[27] = test system: SK-MES human tumor xenograft
[28] = test system: H69 human tumor xenograft
[29] = test system: OVCAR-3 human tumor xenograft
[30] = test system: MDA-MB-231 human tumor xenograft
[31] = test system: A2780 human tumor xenograft
[32] = i.p., q4d×3 schedule, at the MTD
[33] = rat, 1 to 6-hr infusion studies
[34] = Q21 days, patients with solid tumors

Chain of human P-glycoprotein (Pgp) (P08183 whole entry): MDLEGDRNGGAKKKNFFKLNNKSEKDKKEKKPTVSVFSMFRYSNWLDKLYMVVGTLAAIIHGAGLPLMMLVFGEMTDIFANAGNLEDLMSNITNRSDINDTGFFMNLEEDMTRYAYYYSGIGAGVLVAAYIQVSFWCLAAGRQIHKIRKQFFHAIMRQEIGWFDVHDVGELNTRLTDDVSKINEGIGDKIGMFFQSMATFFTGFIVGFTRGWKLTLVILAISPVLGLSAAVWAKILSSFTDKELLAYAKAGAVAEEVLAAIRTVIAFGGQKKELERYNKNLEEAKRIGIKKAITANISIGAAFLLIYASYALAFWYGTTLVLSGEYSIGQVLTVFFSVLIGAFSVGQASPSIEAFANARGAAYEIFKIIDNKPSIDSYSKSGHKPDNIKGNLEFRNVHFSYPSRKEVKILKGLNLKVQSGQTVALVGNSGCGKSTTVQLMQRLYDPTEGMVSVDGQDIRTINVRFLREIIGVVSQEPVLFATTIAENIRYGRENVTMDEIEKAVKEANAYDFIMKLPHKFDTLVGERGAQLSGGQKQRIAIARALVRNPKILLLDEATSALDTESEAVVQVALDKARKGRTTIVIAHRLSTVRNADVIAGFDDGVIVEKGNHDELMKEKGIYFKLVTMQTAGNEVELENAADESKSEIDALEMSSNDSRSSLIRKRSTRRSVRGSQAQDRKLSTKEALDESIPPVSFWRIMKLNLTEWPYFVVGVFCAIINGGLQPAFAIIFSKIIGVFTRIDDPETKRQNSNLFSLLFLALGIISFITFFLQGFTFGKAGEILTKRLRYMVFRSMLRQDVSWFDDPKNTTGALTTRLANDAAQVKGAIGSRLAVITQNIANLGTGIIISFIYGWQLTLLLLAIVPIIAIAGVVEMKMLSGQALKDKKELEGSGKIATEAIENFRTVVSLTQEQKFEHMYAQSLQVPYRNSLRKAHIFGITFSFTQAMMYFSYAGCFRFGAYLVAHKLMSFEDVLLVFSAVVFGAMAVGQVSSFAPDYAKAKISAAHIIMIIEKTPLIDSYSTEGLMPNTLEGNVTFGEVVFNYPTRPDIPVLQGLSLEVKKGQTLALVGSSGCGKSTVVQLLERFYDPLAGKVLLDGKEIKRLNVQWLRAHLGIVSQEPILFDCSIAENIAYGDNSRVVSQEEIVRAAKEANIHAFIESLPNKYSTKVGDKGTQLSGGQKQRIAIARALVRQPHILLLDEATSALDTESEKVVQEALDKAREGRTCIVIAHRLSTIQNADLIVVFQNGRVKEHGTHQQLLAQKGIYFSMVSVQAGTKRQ
Chain of Mouse KSP (Q6P9P6 whole entry): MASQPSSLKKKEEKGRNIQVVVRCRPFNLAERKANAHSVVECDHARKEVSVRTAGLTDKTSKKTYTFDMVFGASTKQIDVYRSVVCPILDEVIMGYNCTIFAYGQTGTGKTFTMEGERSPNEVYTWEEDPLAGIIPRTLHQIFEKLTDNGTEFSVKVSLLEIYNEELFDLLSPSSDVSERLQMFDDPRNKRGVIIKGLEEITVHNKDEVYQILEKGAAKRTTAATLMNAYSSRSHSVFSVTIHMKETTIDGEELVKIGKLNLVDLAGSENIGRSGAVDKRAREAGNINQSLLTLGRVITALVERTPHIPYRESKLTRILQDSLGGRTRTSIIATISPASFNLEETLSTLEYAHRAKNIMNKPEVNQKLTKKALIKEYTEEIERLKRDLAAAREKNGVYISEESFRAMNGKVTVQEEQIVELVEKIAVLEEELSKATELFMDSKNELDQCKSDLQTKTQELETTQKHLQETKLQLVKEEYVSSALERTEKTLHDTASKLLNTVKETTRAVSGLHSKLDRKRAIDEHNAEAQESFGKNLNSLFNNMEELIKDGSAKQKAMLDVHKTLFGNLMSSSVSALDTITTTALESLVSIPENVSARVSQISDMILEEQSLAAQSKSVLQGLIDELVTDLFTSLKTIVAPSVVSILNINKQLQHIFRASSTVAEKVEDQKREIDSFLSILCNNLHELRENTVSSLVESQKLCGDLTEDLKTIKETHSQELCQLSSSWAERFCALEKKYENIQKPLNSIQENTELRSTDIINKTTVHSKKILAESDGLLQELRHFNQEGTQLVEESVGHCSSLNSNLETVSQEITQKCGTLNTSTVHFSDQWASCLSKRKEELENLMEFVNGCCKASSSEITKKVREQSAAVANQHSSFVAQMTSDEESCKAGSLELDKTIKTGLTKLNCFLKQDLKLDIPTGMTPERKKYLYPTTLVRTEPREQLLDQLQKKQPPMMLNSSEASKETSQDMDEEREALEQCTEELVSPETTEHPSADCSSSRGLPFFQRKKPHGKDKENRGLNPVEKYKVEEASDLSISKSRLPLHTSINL
Chain of P-glycoprotein (Pgp, MDR1) (P08183 whole entry): as the sequence (P08183 whole entry) above

COc1cc2c(cc1OC)CN(CCc1ccc(NC(=O)c3cccc4c(=O)c5cccc(OC)c5[nH]c34)cc1)CC2 [GF120918A]
activity at 2 μM [1]: ~30%

Cc1ccc(C(=O)N(CCCN)[C@@H](c2nc3cc(Cl)ccc3c(=O)n2Cc2ccccc2)C(C)C)cc1 [ispinesib, reference compound]
Ki [2]: 0.76 nM | Ki [3]: > 70000 nM | IC50 ([4]; Homo sapiens, HT-29): 1.2 nM | IC50 ([5]; Homo sapiens, SK-OV-3): 1 nM | IC50 ([6]; Homo sapiens, COLO 205): 0.18 nM | IC50 ([7]; MV522): 9.7 nM | IC50 ([8]; Homo sapiens, MX1): 2.8 nM | IC50 ([9]; Mus musculus, P388): 19.7 nM

CC(C)C[C@H](NC(=O)[C@H](Cc1ccccc1)NC(=O)c1cnccn1)B(O)O [bortezomib]
TGD, second arm, single agents [10]: 9 days | mean tumor growth delay (TGD) [10]: 9 days | mean time to endpoint (TTE), tumor volume=1000 mm^3 [10]: did not differ significantly from untreated control animals | MTD ([11]; female, athymic nu/nu (nude), mouse, in vivo, ip, read-out: single agent MTD (q4d×3)): ~1.5 mg/kg

Cc1ccc(C(=O)N(CCCN)[C@@H](c2oc3cc(Cl)ccc3c(=O)c2Cc2ccccc2)C(C)C)cc1 [Compound A, N-(3-Aminopropyl)-N—[(R)-1-3-benzyl-7-chloro-4-oxo-4H-chromen-2-yl-2-methyl-propyl]-4-methyl-benzamide]
% ILS and NCK ([12]; doses equivalent to ¼ or ½ the MTD): reduced | mean (±SEM) % increase in lifespan (ILS) [12, 32]: 156±10% | net cell kill (NCK) [12, 32]: 2.9±0.5 logs | single agent activity against advanced xenograft ([13]; Colo205): complete regressions | tumor regression ([13]; i.p. q4d×3, at the MTD): complete tumor regressions | tumor regression ([13]; i.p. q4d×3, doses as low as 25% of the MTD, majority of animals): Partial tumor regressions | tumor response [14]: refractory | animals euthanized in moribund condition ([15]; Day 4 after a single 1-hr IV infusion of 20 mg/m^2): One of 10 dogs | dose with clinical observations of gastrointestinal (GI) disturbances ([15]; dog, 1-hr IV infusion): ≥ 10 mg/m^2 | highest non-severely toxic dose ([15]; dog, 1-hr IV infusion, once weekly for 3 weeks): 10 mg/m^2 | dose with testicular germinal epithelial abnormalities ([15]; male dogs): 20 mg/m^2 | dose with degenerative testicular changes not reversed 2 weeks after dosing ([16]; rat IV infusion): ≥ 18 mg/m^2 | dose with increased mitotic figures in many tissues ([16]; rat IV infusion): ≥ 36 mg/m^2 | MTD [16, 33]: 72 mg/m^2 | mortality [16, 33]: no mortality | dose at which mortality occurred ([16]; rat, after a single dose): 18 mg/m^2 | dose at which mortality occurred ([16]; rat, after repeated weekly dosing): 12 mg/m^2 | hemolysis ([17]; at 0.3 mg/mL): no hemolysis was observed | hemolytic concentration ([17]; mixed with rat, dog, rabbit and human blood): ≥ 0.6 mg/mL | genotoxic activity [18]: did not show evidence of genotoxic activity | genotoxic activity [19]: did not show evidence of genotoxic activity | micronucleus result [20]: positive results as an aneugen | patients with dose-limiting toxicity (Grade 3 hypophosphatemia, not thought to be drug-related) ([21]; 4 mg/m^2): 1 of the first 6 patients | day of ANC nadir ([21]; Phase I, Q21 days): 7 to 8 days | day of ANC recovery ([21]; Phase I, Q21 days): ≤ 15 days | neurotoxicity, mucositis, thrombocytopenia, alopecia, and nausea vomiting requiring pre-medication ([21]; Phase I, one hour infusion every 21 days): have not been observed | most commonly occurring dose-limiting toxicity [21, 34]: Prolonged (≧5 days), reversible neutropenia | presumptive maximum tolerated dose (MTD) [21, 34]: 4 mg/m^2 | dose eliciting Grade 4 neutropenia lasting ≧5 days ([21]; single one hour infusion every 21 days): ≥ 5 mg/m^2 | Ki [2]: 0.12 nM | Ki [3]: > 70000 nM | IC50 [4]: 1.9 nM | IC50 [5]: 0.2 nM | IC50 [6]: 0.07 nM | IC50 [7]: 1.7 nM | IC50 [8]: 0.06 nM | IC50 [9]: 14.4 nM | cytotoxic activity [22]: less than 2 nM | TGD, second arm, single agents [10]: 12 days | mean tumor growth delay (TGD) [10]: 24 days | mean time to endpoint (TTE), tumor volume=1000 mm^3 [10]: did not differ significantly from untreated control animals | single agent MTD (q4d×3) ([11]; i.p.): about 10 mg/kg | single agent activity against advanced xenograft ([23]; HT-29): tumor growth delay | tumor growth delay (T-C1000) ([23]; i.p. q4d×3, time differential to tumor volume 1000 mm^3): 25 days | tumor regressions [24]: did not induce any tumor regressions | tumor growth delay (T-C1000) ([24]; time differential to tumor volume 1000 mm^3): 10 days | Pgp substrate [25]: is a Pgp substrate | average P7.4 [25]: 25 nm/s | passive membrane permeability [25]: < 50 nm/s | single agent activity against advanced xenograft [26]: complete and partial regressions | single agent activity against advanced xenograft [27]: complete and partial regressions | single agent activity against advanced xenograft [28]: complete and partial regressions | single agent activity against advanced xenograft [29]: complete and partial regressions | single agent activity against advanced xenograft [30]: tumor growth delay | single agent activity against advanced xenograft [31]: tumor growth delay

CC(=O)O[C@H]1C(=O)[C@@]2(C)[C@H]([C@H](OC(=O)c3ccccc3)[C@]3(O)C[C@H](OC(=O)[C@H](O)[C@@H](NC(=O)c4ccccc4)c4ccccc4)C(C)=C1C3(C)C)[C@]1(OC(C)=O)CO[C@@H]1C[C@@H]2O [paclitaxel]
mean time to endpoint (TTE), tumor volume=1000 mm^3 [10]: 59 days
